{"source": "patent US20130202646A1", "about": "“COMPOSITIONS AND METHODS FOR MODULATING AUTOPHAGY” (SAN DIEGO STATE UNIVERSITY (SDSU) FOUNDATION, priority 2010, published 2013)", "key": {"[1]": {"test_system": "isolated perfused rat hearts", "experiment": "Autophagy in isolated perfused rat hearts (LC3-II/LC3-I Western blot, cadaverine dye binding)"}, "[2]": {"test_system": "adult rat cardiomyocytes", "experiment": "Autophagy (GFP-LC3 puncta) in adult rat cardiomyocytes", "format": "cell-based"}, "[3]": {"test_system": "isolated perfused rat hearts", "experiment": "Langendorff global ischemia/reperfusion injury in isolated perfused rat hearts (CK release, TTC infarct size, hemodynamics)"}, "[4]": {"test_system": "HL-1 cells", "experiment": "Cell death by LDH release after simulated ischemia/reperfusion (sI/R) in HL-1 cells", "format": "cell-based, murine", "details": "for effect on cytoprotection by CCPA (LDH release): inhibitor plus CCPA, then sI/R (2 hr sI, 3 hr R)", "experimental": "Cells of the murine atrial-derived cardiac cell line HL-1^16 were plated in gelatin/fibronectin-coated culture vessels and maintained in Claycomb medium^16 (JRH Biosciences, Lenexa, Kans.) supplemented with 10% fetal bovine serum, 0.1 mm norepinephrine, 2 mm […], 100 U·mL^-1 penicillin, 100 U·mL^-1 streptomycin, and 0.25 μg·mL^-1 amphotericin B. Cells were plated in 14-mm diameter glass bottom microwell dishes (MatTek), and ischemia was introduced by a buffer exchange to ischemia-mimetic solution (in mM: 20deoxyglucose, 125 NaCl, 8 KCl, 1.2 KH2PO4, 1.25 MgSO4, 1.2 CaCl2, 6.25 NaHCO2, 5 sodium lactate, 20 HEPES, pH 6.6) and placing the dishes in hypoxic pouches (GasPakTM EZ, BD Biosciences) equilibrated with 95% N2, 5% CO2. After 2 hr of simulated ischemia, reperfusion was initiated by a buffer exchange to normoxic MKH buffer and incubation at 95% room air, 5% CO2. Controls incubated in normoxic MKH buffer were run in parallel for each condition for periods of time that corresponded with those of the experimental groups. […] The cell cultures were washed with PBS prior to the experimental treatment. Protein content and LDH activity were determined according to El-Ani et al.^20. Briefly, 25 μl supernatants from 35 mm dishes were transferred into wells of a 96-well plate, and the LDH activities were determined with an LDH-L kit (Sigma), according to the manufacturer. The product of the enzyme was measured spectrophotometrically at 30° C. at a wavelength of 340 nm as described previously^21. The results were expressed relative to the control (X-fold) in the same experiment. Each experiment was done in triplicate and was repeated at least three times."}, "[5]": {"test_system": "HL-1 cells", "experiment": "Autophagy scored by intracellular distribution of GFP-LC3 (fluorescence microscopy) in HL-1 cells", "format": "cell-based, murine", "details": "for effect on upregulation/induction of autophagy by CCPA: inhibitor pretreatment, then CCPA, normoxic, before ischemia"}, "[6]": {"test_system": "mCherry-LC3 transgenic mice", "experiment": "Induction of autophagy in vivo in hearts of mCherry-LC3 transgenic mice"}, "[7]": {"test_system": "adult rat cardiomyocytes", "details": "CCPA 10 min before simulated ischemia (FIG. 7B)"}, "[8]": {"test_system": "HL-1 cells", "experiment": "Cell death by propidium iodide uptake after sI/R in HL-1 cells", "format": "cell-based, murine", "details": "100 nM CCPA 10 min before sI/R; end of reperfusion", "experimental": "Cells were plated in 14-mm diameter glass bottom microwell dishes (MatTek), and ischemia was introduced by a buffer exchange to ischemia-mimetic solution (in mM: 20deoxyglucose, 125 NaCl, 8 KCl, 1.2 KH2PO4, 1.25 MgSO4, 1.2 CaCl2, 6.25 NaHCO2, 5 sodium lactate, 20 HEPES, pH 6.6) and placing the dishes in hypoxic pouches (GasPakTM EZ, BD Biosciences) equilibrated with 95% N2, 5% CO2. After 2 hr of simulated ischemia, reperfusion was initiated by a buffer exchange to normoxic MKH buffer and incubation at 95% room air, 5% CO2. Controls incubated in normoxic MKH buffer were run in parallel for each condition for periods of time that corresponded with those of the experimental groups. Cells were stained immediately after sI/R with propidium iodide (5 μg/ml), which stains nuclei of cells whose plasma membranes have become permeable because of cell damage. The assay was performed according to […] et al.^22. For counterstaining we used Hoechst 33342 (10 μM), which stains the nuclei of all cells."}, "[9]": {"test_system": "neonatal rat cardiomyocytes", "experiment": "Autophagosomes (GFP-LC3) in neonatal rat cardiomyocytes", "details": "100 nM CCPA, 10 min"}, "[10]": {"test_system": "PKC epsilon", "experiment": "PKC epsilon translocation in perfused rat heart", "format": "cell-based", "details": "after SUL administration", "experimental": "Subcellular fractionation. Frozen heart samples were thawed on ice in homogenization buffer containing (in mmol/L): Tris-HCL 20, EDTA 2, EGTA 10, PMSF 1, leupeptin 0.1, E-64 0.01, and sucrose 250). The tissue was then minced and Plytron homogenized (Kinematica, Basel, Switzerland) on ice for 15s for three passes. The homogenates were centrifuged at 600 g for 5 min at 4° C, and the crude supernatants were further centrifuged at 10,000 g for 10 min 4° C. The supernatant, designated as crude cytosol, was divided and one fraction was further centrifuged at 100,000 g for 1 h at 4° C. The resulting supernatant was designated as cytosolic fraction. The pellet was resuspended in homogenization buffer with 1% TritonX-100, incubated on ice for 1 h, then centrifuged at 100,000 g for 1 h at 4° C. The resulting supernatant was designated as the particulate fraction. Samples were stored at −80° C. until use. Western blot analysis. Proteins prepared from rat hearts were quantified by Bio-Rad protein assay. For immunodetection, 50 μg of crude cytosol prepared as above were resolved on SDS-PAGE 10% denaturing gels and transferred to PVDF nylon membranes. The membranes were blocked with 5% nonfat dry milk in TNT buffer (in mM: NaCl 100, Tris·HCl 10 (pH 7.4), and 0.1% Tween-20) for 1 h. […] To quantify the protein, intensity of bands was assessed with Scion Image Software."}, "[11]": {"test_system": "PKC δ", "experiment": "PKC delta translocation/redistribution in perfused rat heart and adult rat cardiomyocytes", "format": "cell-based"}}, "data": [{"smiles": "COc1ccc2c(c[n+](C)c3c4cc5c(cc4ccc23)OCO5)c1OC", "note": "[chelerythrine]", "values": [{"measurement": "effect on autophagy induced by SUL (cadaverine dye binding)", "setting": "[1]; chelerythrine with SUL", "result": "suppressed autophagy induced by SUL"}, {"measurement": "effect on SUL-induced increase in cells with numerous autophagosomes", "setting": "[2]; chelerythrine 5 μM 10 min before 10 μM SUL", "result": "suppressed"}, {"measurement": "infarct size with or without SUL", "setting": "[3]; chelerythrine 15 min before ischemia", "result": "no difference in infarct size whether SUL is present or absent"}]}, {"smiles": "COc1ccc2c(c1)CC[C@@H]1[C@@H]2CC[C@]2(C)[C@@H](NCCCCCCN3C(=O)C=CC3=O)CC[C@@H]12", "note": "[U73122]", "values": [{"measurement": "effect on cytoprotection by CCPA (LDH release)", "setting": "[4]", "result": "an increase in LDH release"}, {"measurement": "autophagy after sI/R (repair autophagy)", "setting": "[5]; inhibitor 15 min, then CCPA 10 min, then sI/R", "result": "an increase in autophagy after sI/R"}, {"measurement": "effect on upregulation/induction of autophagy by CCPA", "setting": "[5]", "result": "PLC is required for CCPA stimulation of autophagy before ischemia"}]}, {"smiles": "CCCn1c(=O)c2[nH]c(C3CCCC3)nc2n(CCC)c1=O", "note": "[DPCPX]", "values": [{"measurement": "effect on cytoprotection by CCPA (LDH release)", "setting": "[4]", "result": "Cytoprotection was abolished"}, {"measurement": "effect on cytoprotection by CCPA in the second window of protection (LDH release)", "setting": "[4]; with CCPA 10 min, washout, sI/R 20-24 hr later", "result": "abolished the cytoprotection by CCPA"}, {"measurement": "effect on upregulation/induction of autophagy by CCPA", "setting": "[5]", "result": "partially blocked"}, {"measurement": "effect on autophagy in the second window of protection", "setting": "[5]; with CCPA 10 min, washout, 20-24 hr later", "result": "blocked the effects of CCPA on autophagy"}]}, {"smiles": "OC[C@H]1O[C@@H](n2cnc3c(NC4CCCC4)nc(Cl)nc32)[C@H](O)[C@@H]1O", "note": "[CCPA, 2-chloro-N(6)-cyclopentyladenosine]", "values": [{"measurement": "LDH release", "setting": "[4]; 100 nM CCPA 10 min before sI/R, end of simulated ischemia", "result": "diminished LDH release"}, {"measurement": "percentage of cells with numerous autophagosomes (autophagic flux)", "setting": "[5]; 100 nM 10 min, full medium, with or without Bafilomycin A1 (FIG. 2)", "result": "increased the percentage of cells with numerous autophagosomes under both steady-state and cumulative conditions"}, {"measurement": "autophagosomes after sI/R", "setting": "[5]; 100 nM 10 min, then 2 hr sI, 3 hr R", "result": "Fewer autophagosomes"}, {"measurement": "extent of autophagy induced by starvation", "setting": "[5]; 100 nM 10 min, then starvation in MKH 3 hr", "result": "no effect"}, {"measurement": "autophagy in delayed preconditioning", "setting": "[5]; 24 hr after 10 min CCPA and washout, normoxia", "result": "upregulated"}, {"measurement": "repair autophagy at reperfusion in delayed preconditioning", "setting": "[5]; 24 hr after 10 min CCPA, then sI/R", "result": "less"}, {"measurement": "persistence of the increase in autophagosomes", "setting": "[5]; CCPA 100 nM", "result": "at least 300 min"}, {"measurement": "time to increase in the number of autophagosomes", "setting": "[5]; CCPA 100 nM", "result": "≤ 10", "unit": "min"}, {"measurement": "induction of autophagy", "setting": "[5]; full medium, 0.001-10 μM, 120 min (FIG. 1A)", "result": "induced autophagy in a dose-dependent fashion"}, {"measurement": "number of mCherry-LC3-labeled structures in left ventricle cryosections", "setting": "[6]; CCPA 1 mg/kg i.p., 30 min", "result": "a large increase in the number of mCherry-LC3-labeled structures"}, {"measurement": "cytoprotection (LDH release at end of simulated ischemia)", "setting": "[7]", "result": "conferred cytoprotection"}, {"measurement": "uptake of propidium iodide", "setting": "[8]", "result": "diminished"}, {"measurement": "autophagy (percentage of cells with numerous puncta)", "setting": "[2]; CCPA 10 min (FIG. 7A)", "result": "induced autophagy"}, {"measurement": "number of autophagosomes", "setting": "[9]", "result": "an increase in the number of autophagosomes"}]}, {"smiles": "C/C=C(/C)C(=O)O[C@H]1C(C)=C2[C@H]([C@@H]1OC(=O)CCCCCCC)[C@@](C)(OC(C)=O)C[C@H](OC(=O)CCC)[C@@]1(O)[C@H]2OC(=O)[C@@]1(C)O", "note": "[thapsigargin]", "values": [{"measurement": "effect on upregulation/induction of autophagy by CCPA", "setting": "[5]", "result": "suprressed the induction of autophagy by CCPA"}]}, {"smiles": "Nc1ccc(S(=O)(=O)Nc2ccnn2-c2ccccc2)cc1", "note": "[SUL, sulfaphenazole]", "values": [{"measurement": "number of autophagosomes in hearts", "setting": "[6]; SUL 10 mg/kg i.p.", "result": "significant increase in the number of autophagosomes"}, {"measurement": "BODIPY-TR-cadaverine incorporation into autophagosomes", "setting": "[1]; SUL administration (FIG. 15B)", "result": "increased"}, {"measurement": "ratio of LC3-II/I", "setting": "[1]; SUL perfusion 30 min", "result": "doubling"}, {"measurement": "percentage of cells with numerous autophagosomes", "setting": "[2]; 10 μM SUL, 30 min", "result": "significantly increased"}, {"measurement": "contractility before ischemia", "setting": "[3]; 10 μM SUL", "result": "no effect"}, {"measurement": "infarct size (TTC)", "setting": "[3]; 10 μM SUL from 10 min before ischemia, 30 min ischemia, 120 min reperfusion", "result": "reduced infarct size"}, {"measurement": "recovery of contractile function after I/R", "setting": "[3]; 10 μM SUL, pre-ischemic administration", "result": "about 90 % of pre-ischemic value"}, {"measurement": "CK release", "setting": "[3]; 10 μM SUL, coronary effluent, first 15 min of reperfusion", "result": "attenuated CK release"}, {"measurement": "infarct size", "setting": "[3]; SUL alone, 120 min reperfusion", "result": "5 % of the area at risk"}, {"measurement": "infarct size (TTC)", "setting": "[3]; SUL introduced at the onset of reperfusion", "result": "the reduction of infarct size was sustained"}, {"measurement": "infarct size (TTC)", "setting": "[3]; SUL introduced at the onset of reperfusion, listed as sulfaphenazole", "result": "reduces infarct size"}, {"measurement": "PKC epsilon translocation", "setting": "[10]", "result": "did not show a consistent pattern of translocation"}, {"measurement": "PKC delta translocation (cytosol to particulate fraction)", "setting": "[11]; Langendorff-perfused heart, 30 min after SUL infusion", "result": "translocation of PKC delta to the particulate fraction"}, {"measurement": "distribution of PKC delta (immunostaining)", "setting": "[11]; adult rat cardiomyocytes, SUL 15 min", "result": "much more closely aligned with alpha-actinin"}]}, {"smiles": "CC(=O)OCOC(=O)CN(CC(=O)OCOC(C)=O)c1ccccc1OCCOc1ccccc1N(CC(=O)OCOC(C)=O)CC(=O)OCOC(C)=O", "note": "[BAPTA-AM]", "values": [{"measurement": "effect on upregulation/induction of autophagy by CCPA", "setting": "[5]", "result": "suprressed the induction of autophagy by CCPA"}]}]}
